Molecules are shown by their SMILES.

This is an account of results in ChEMBL document CHEMBL1140810, “Conversion of an MMP-potent scaffold to an MMP-selective HER-2 sheddase inhibitor via scaffold hybridization and subtle P1' permutations” (Bioorg Med Chem Lett, 2008).

The target in assay [1] is T1, Disintegrin and metalloproteinase domain-containing protein 10 (Homo sapiens, UniProt O14672).
T1 sequence (O14672 whole entry): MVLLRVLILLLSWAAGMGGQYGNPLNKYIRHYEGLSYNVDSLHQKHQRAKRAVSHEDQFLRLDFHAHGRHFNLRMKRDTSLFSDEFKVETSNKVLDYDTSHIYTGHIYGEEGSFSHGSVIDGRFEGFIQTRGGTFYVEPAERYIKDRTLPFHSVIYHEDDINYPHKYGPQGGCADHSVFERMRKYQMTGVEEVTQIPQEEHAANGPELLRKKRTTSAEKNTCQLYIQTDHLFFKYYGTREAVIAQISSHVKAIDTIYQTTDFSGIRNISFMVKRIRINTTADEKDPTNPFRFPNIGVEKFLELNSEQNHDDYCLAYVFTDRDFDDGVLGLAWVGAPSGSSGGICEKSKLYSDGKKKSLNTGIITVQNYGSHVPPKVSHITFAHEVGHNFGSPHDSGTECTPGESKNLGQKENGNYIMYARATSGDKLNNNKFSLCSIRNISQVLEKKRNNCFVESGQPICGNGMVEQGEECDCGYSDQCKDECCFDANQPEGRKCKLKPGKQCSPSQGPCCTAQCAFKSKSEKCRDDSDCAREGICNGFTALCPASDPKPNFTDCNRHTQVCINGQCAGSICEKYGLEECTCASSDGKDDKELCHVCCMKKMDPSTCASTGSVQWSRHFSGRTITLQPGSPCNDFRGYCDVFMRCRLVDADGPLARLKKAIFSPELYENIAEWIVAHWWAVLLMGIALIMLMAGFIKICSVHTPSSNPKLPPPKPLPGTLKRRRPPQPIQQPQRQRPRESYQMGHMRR
In words: Inhibition of HER2 sheddase in human BT474 cells. The class given is cell-based, BT-474.

In assay [2] the target is T1, Disintegrin and metalloproteinase domain-containing protein 10.
The target of the next assay is T2, Interstitial collagenase (Homo sapiens, UniProt P03956).
T2 sequence (P03956 whole entry): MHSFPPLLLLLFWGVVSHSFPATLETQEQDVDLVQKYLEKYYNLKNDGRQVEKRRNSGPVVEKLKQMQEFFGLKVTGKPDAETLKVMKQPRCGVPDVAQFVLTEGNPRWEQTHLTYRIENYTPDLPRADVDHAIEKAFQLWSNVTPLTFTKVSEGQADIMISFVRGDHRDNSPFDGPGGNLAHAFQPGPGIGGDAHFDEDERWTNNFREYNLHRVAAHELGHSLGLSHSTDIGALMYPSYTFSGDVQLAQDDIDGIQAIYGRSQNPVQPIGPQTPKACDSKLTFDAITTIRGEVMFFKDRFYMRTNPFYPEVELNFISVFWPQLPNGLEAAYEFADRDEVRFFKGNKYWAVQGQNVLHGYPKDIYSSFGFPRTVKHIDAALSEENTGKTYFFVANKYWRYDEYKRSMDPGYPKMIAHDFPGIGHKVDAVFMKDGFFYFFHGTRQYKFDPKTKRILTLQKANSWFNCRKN

Assay [3] has as its target 72 kDa type IV collagenase (Homo sapiens, UniProt P08253).
Another assay has as its target Stromelysin-1 (Homo sapiens, UniProt P08254). The experiment in a line: Inhibition of MMP3.
For assay [4], the target named is Matrix metalloproteinase-9 (Homo sapiens, UniProt P14780). In words: Inhibition of MMP9.
Sequence of Matrix metalloproteinase-9 (P14780 whole entry): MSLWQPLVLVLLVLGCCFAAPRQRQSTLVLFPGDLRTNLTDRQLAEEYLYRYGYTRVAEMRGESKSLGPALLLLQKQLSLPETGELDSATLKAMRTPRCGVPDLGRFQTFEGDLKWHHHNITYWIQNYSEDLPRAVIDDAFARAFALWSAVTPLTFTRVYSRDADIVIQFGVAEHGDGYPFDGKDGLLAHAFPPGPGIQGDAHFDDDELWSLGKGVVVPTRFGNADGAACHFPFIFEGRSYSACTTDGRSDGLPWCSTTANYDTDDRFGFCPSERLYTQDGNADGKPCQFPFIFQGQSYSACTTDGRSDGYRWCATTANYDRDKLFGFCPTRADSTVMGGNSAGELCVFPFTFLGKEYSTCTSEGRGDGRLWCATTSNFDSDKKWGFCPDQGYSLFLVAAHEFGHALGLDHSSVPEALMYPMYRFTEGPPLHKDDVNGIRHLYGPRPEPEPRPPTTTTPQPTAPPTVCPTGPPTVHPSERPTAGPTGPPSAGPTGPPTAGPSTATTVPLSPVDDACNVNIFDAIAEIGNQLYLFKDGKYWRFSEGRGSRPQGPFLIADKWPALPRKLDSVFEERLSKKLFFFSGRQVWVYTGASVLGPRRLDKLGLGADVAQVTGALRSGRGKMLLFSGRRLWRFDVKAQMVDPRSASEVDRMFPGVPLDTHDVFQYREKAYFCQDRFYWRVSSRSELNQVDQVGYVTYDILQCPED

Sequence of 72 kDa type IV collagenase (P08253 whole entry): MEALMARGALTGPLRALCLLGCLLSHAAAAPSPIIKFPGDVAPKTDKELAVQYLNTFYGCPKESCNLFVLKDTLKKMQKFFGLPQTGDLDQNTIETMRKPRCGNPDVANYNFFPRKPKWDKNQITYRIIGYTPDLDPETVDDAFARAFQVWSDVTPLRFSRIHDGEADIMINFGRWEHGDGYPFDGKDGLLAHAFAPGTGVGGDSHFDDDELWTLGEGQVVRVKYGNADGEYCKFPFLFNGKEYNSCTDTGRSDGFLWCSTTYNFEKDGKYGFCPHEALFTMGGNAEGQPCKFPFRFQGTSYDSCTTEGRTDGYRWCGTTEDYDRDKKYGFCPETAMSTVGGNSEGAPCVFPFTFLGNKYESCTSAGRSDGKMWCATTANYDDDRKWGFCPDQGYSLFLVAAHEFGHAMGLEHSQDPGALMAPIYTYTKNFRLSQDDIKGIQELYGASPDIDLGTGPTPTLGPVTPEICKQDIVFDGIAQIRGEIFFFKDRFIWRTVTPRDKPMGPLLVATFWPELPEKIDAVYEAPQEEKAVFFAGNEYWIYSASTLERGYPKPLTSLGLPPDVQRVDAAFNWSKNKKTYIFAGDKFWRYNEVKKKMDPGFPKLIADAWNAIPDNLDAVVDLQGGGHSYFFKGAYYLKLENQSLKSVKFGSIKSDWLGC
Sequence of Stromelysin-1 (P08254 whole entry): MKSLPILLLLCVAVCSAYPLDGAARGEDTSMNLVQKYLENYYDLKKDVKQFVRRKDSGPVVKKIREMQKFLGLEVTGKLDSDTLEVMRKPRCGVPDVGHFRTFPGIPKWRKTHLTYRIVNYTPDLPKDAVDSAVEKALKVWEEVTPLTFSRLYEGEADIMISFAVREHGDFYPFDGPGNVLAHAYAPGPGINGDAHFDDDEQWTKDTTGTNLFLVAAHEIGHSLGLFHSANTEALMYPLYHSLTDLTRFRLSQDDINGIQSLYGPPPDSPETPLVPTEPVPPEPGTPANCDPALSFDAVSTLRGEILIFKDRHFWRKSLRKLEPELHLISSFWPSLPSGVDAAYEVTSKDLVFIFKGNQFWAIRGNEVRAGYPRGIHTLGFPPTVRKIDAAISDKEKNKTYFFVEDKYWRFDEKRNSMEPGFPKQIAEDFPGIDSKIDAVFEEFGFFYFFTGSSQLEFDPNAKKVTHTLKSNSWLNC

For `O=C(O[C@H]1CCOC1)N1CCC(CS(=O)(=O)N2CC=C(c3ccccc3)CC2)(C(=O)NO)CC1`, the IC50 in assay [1] amounted to 7.1 nM; in assay [2], 10 nM; on Interstitial collagenase it was 259 nM; in assay [3] it was 4 nM; on Stromelysin-1 it was 237 nM; in assay [4] it was 25 nM.

For `Cc1ccccc1N1CCN(S(=O)(=O)CC2(C(=O)NO)CCN(C(=O)O[C@H]3CCOC3)CC2)CC1`, the IC50 in assay [1] was 217 nM; in assay [2], 107 nM; in assay [3], above 2000 nM.

For the molecule `Cc1cc(C#N)ccc1C1=CCN(S(=O)(=O)CC2(C(=O)NO)CCN(C(=O)O[C@H]3CCOC3)CC2)CC1`, the IC50 in assay [1] turned out to be 45 nM; in assay [2] it was 107 nM; in assay [3] it was 1560 nM.

As to `Cc1ccccc1C1=CCN(S(=O)(=O)CC2(C(=O)NO)CCN(C(=O)O[C@H]3CCOC3)CC2)CC1`, the figures for the IC50 in assay [1], in assay [2] and in assay [3] were 133 nM, 18 nM and 2000 nM, respectively.

As for `Cc1cc(C#N)ccc1N1CCN(S(=O)(=O)CC2(C(=O)NO)CCN(C(=O)O[C@H]3CCOC3)CC2)CC1`, the IC50 in assay [1] is 25 nM; in assay [2], 26 nM; against Interstitial collagenase, above 5000 nM; in assay [3], above 5000 nM; against Stromelysin-1 it was above 5000 nM; in assay [4], above 5000 nM.

Turning to `Cc1ccccc1C1CCN(S(=O)(=O)CC2(C(=O)NO)CCN(C(=O)OC3CCNC3)CC2)CC1` (stereo unspecified), the IC50 in assay [1] was 16 nM; in assay [2], 18 nM; against Interstitial collagenase, above 5000 nM; in assay [3], 546 nM.

With `O=C(O[C@H]1CCOC1)N1CCC(CS(=O)(=O)N2CCC(c3ccccc3F)CC2)(C(=O)NO)CC1`, the IC50 was 76 nM in assay [1]; 44 nM in assay [2]; above 5000 nM at Interstitial collagenase; 135 nM in assay [3]; 942 nM on Stromelysin-1; 100 nM in assay [4].

Regarding `N#Cc1ccccc1C1CCN(S(=O)(=O)CC2(C(=O)NO)CCN(C(=O)O[C@H]3CCOC3)CC2)CC1`, the IC50 in assay [1] is above 1000 nM; in assay [2] it was above 2000 nM; in assay [3], above 2000 nM.

`Cc1ccccc1C1CCN(S(=O)(=O)CC2(C(=O)NO)CCN(C(=O)OC[C@@H]3CCCN3)CC2)CC1`: the IC50 in assay [1] was 23 nM; in assay [2] it was 34 nM; on Interstitial collagenase, above 5000 nM; in assay [3] it was above 2000 nM.

`Cc1ccccc1C1CCN(S(=O)(=O)CC2(C(=O)NO)CCN(C(=O)OC[C@H]3CCCN3)CC2)CC1`: the IC50 is 30 nM in assay [1], 19 nM in assay [2], above 5000 nM at Interstitial collagenase and above 2000 nM in assay [3].

`Cc1cc(C#N)ccc1C1CCN(S(=O)(=O)CC2(C(=O)NO)CCN(C(=O)OC[C@@H]3CCCN3)CC2)CC1`: the IC50 in assay [1] was 6.5 nM; in assay [2], 9.1 nM; against Interstitial collagenase it was above 5000 nM; in assay [3] it was 1270 nM.

Take `Cc1ccccc1C1CCN(S(=O)(=O)CC2(C(=O)NO)CCN(C(=O)O[C@H]3CCOC3)CC2)CC1`: the IC50 in assay [1] was 41 nM; in assay [2] it was 18 nM; at Interstitial collagenase, above 5000 nM; in assay [3], above 2000 nM; at Stromelysin-1 it was above 5000 nM; in assay [4], above 5000 nM.

Regarding `Cc1cc(C#N)ccc1C1CCN(S(=O)(=O)CC2(C(=O)NO)CCN(C(=O)OC[C@H]3CCCN3)CC2)CC1`, the IC50 in assay [1] is 23 nM; in assay [2] it was 11 nM; against Interstitial collagenase it was above 5000 nM; in assay [3] it was 1380 nM.

As for `Cc1cc(C(=O)N(C)C)ccc1C1CCN(S(=O)(=O)CC2(C(=O)NO)CCN(C(=O)O[C@H]3CCOC3)CC2)CC1`, the IC50 in assay [1] was above 1000 nM; in assay [2], above 2000 nM; in assay [3], 655 nM.

On to `Cc1cc(C#N)ccc1C1=CCN(S(=O)(=O)CC2(C(=O)NO)CCN(C(=O)OC[C@@H]3CCCN3)CC2)CC1`, for which the IC50 in assay [1] was 27 nM; in assay [2], 34 nM; against Interstitial collagenase, above 5000 nM; in assay [3], above 2000 nM.

In the case of `Cc1cc(C#N)ccc1C1CCN(S(=O)(=O)CC2(C(=O)NO)CCN(C(=O)O[C@H]3CCOC3)CC2)CC1`, the IC50 in assay [1] is 14 nM; in assay [2] it was 12 nM; against Interstitial collagenase it was above 5000 nM; in assay [3], 2000 nM; against Stromelysin-1, above 5000 nM; in assay [4] it was above 5000 nM.

Consider `N#Cc1ccc(C2CCN(S(=O)(=O)CC3(C(=O)NO)CCN(C(=O)O[C@H]4CCOC4)CC3)CC2)cc1`, for which the IC50 in assay [1] turned out to be 77 nM; in assay [2] it was 39 nM; in assay [3], 9 nM.

For `Cc1cc(C2CCN(S(=O)(=O)CC3(C(=O)NO)CCN(C(=O)O[C@H]4CCOC4)CC3)CC2)cc(C)c1C#N`, the IC50 in assay [1] is 96 nM; in assay [2] it was 57 nM; against Interstitial collagenase it was above 5000 nM; in assay [3], 126 nM; against Stromelysin-1 it was 756 nM; in assay [4], 535 nM.

Take `Cc1ccccc1C1CCN(S(=O)(=O)CC2(C(=O)NO)CCN(C(=O)OC3(C)CCOC3)CC2)CC1` (stereo unspecified): the IC50 was 36 nM in assay [1], 11 nM in assay [2], above 5000 nM at Interstitial collagenase and 564 nM in assay [3].

Regarding `O=C(O[C@H]1CCOC1)N1CCC(CS(=O)(=O)N2CC=C(c3ccccc3)C2)(C(=O)NO)CC1`, the IC50 came to 102 nM in assay [1], 332 nM in assay [2] and 52 nM in assay [3].

For the molecule `Cc1cc(C)cc(C2CCN(S(=O)(=O)CC3(C(=O)NO)CCN(C(=O)O[C@H]4CCOC4)CC3)CC2)c1`, the IC50 in assay [1] is 833 nM; in assay [2], 286 nM; on Interstitial collagenase, above 5000 nM; in assay [3], 315 nM; at Stromelysin-1, 2160 nM; in assay [4], 955 nM.

Turning to `O=C(O[C@H]1CCOC1)N1CCC(CS(=O)(=O)N2CCC(c3ccccc3)C2)(C(=O)NO)CC1` (stereo partly specified), the IC50 in assay [1] was 358 nM; in assay [2], 261 nM; in assay [3], 549 nM.

With `C#CCN1CCC(CS(=O)(=O)c2ccc(Oc3ccccc3)cc2)(C(=O)NO)CC1`, the IC50 at Interstitial collagenase is 8660 nM; in assay [3], below 1.5 nM; against Stromelysin-1, below 1.5 nM; in assay [4], below 1.5 nM.

Regarding `Cc1cc(C#N)ccc1C1=CCN(S(=O)(=O)CC2(C(=O)NO)CCN(C(=O)OC[C@H]3CCCN3)CC2)CC1`, the IC50 in assay [1] was 19 nM; in assay [2] it was 24 nM; on Interstitial collagenase it was above 5000 nM; in assay [3], above 2000 nM.

Consider `Cc1cc(C#N)ccc1C1CCN(S(=O)(=O)CC2(C(=O)NO)CCN(C(=O)OC3CCNC3)CC2)CC1` (stereo unspecified), for which the IC50 was 13 nM in assay [1], 7.8 nM in assay [2], above 5000 nM on Interstitial collagenase and above 2000 nM in assay [3].

As for `O=C(O[C@H]1CCOC1)N1CCC(CS(=O)(=O)N2CCC(c3ccccc3)CC2)(C(=O)NO)CC1`, the IC50 in assay [1] came out at 22 nM; in assay [2], 28 nM; at Interstitial collagenase, 753 nM; in assay [3], 18 nM; against Stromelysin-1, 366 nM; in assay [4], 22 nM.

Regarding `O=C(O[C@H]1CCOC1)N1CCC(CS(=O)(=O)N2CCC(c3ccccc3C(F)(F)F)CC2)(C(=O)NO)CC1`, the IC50 in assay [1] was above 1000 nM; in assay [2], 1040 nM; in assay [3], above 2000 nM.

`Cc1ccccc1C1CCN(S(=O)(=O)CC2(C(=O)NO)CCN(C(=O)OC3COCC3(C)C)CC2)CC1` (stereo unspecified): the IC50 in assay [1] is 14 nM; in assay [2], 22 nM; against Interstitial collagenase, above 5000 nM; in assay [3], 574 nM.

As for `Cc1cc(F)ccc1C1CCN(S(=O)(=O)CC2(C(=O)NO)CCN(C(=O)O[C@H]3CCOC3)CC2)CC1`, the figures for the IC50 in assay [1], in assay [2] and in assay [3] were 141 nM, 92 nM and above 2000 nM, respectively.

For the molecule `Cc1ccccc1C1CCN(S(=O)(=O)CC2(C(=O)NO)CCN(C(=O)OC3CCCC3O)CC2)CC1` (trans isomer), the IC50 in assay [1] amounted to 6.2 nM; in assay [2], 16 nM; on Interstitial collagenase it was 5000 nM; in assay [3] it was 537 nM.
